US6890950B2, “Lapachone delivery systems, compositions and uses related thereto” (priority 2002, dated 2005)
Values joined by “and” are separate entries in the source; they are usually repeats but may differ in a detail not shown here. Equal values may be shown once. Read-outs that look alike come from different tables or passages of the source.

How the values were obtained:
[1] = solubility of β-lap in PBS (orbital shaker, UV-Vis); assay type: physicochemical; settings: 37° C.
Experimental: Fabrication of β-lap-loaded polymer millirods. The extremely low solubility of β-lap in water has greatly limited the clinical use of this compound. The development of drug-impregnated millirods, wherein β-lap release kinetics may be accurately permits the delivery of an efficacious form of therapy against human prostate tumors that commonly over-express the NQO1 oxidoreductase. The extinction coefficient for β-lap in water was determined to be 2.6×10^4 cm^−1M^−1 at 257 nm wavelength by UV-V is spectrophotometry. Solubility experiments were performed by immersing β-lap in PBS over a period of six days in an orbital shaker at 37° C. At the start of the experiment the drug suspension was sonicated for 20 seconds to facilitate the fast reach of solubility equilibrium. Samples were taken and filtered by 0.2 μm Millipore filters via syringe to remove non-dissolved drug particles and diluted to accommodate the UV-V is sensitive range before collecting absorbance data. […] This concentration is too low for i.v. administration in clinical applications. […] Polymer millirods were fabricated using a compression heat molding procedure as previously developed in our lab. (Halpert, B., Sheehan, E. and Schmalhorst, W. (1998) Cancer 82, 737-742.) Briefly, β-lap particles were mixed with polymer microspheres (4 μm) and various concentrations of glucose. […]

DU-145 = experiment: TUNEL apoptosis assay; assay type: cell-based, human; settings: 10 μM, 4h, TUNEL 48h
[2] = test system: LNCaP vector alone clones; experiment: apoptosis in transfected LNCaP clones; assay type: cell-based, human; settings: 10 μM β-lap
Source text: (§1) LNCaP cells were transfected with either pcDNA3 empty vector or pcDNA3 containing full-length NQO1 cDNA.

[3] = test system: NQO1-expressing LNCaP clone (LN-NQ Cl 1-4, 10); experiment: apoptosis in transfected LNCaP clones; assay type: cell-based, human; settings: 10 μM β-lap
Source text: as §1

DU-145 cells = experiment: survival / lethality of CaP cells; assay type: cell-based, human
C57/blk6 mice = settings: cited from earlier work
PC-3 = experiment: TUNEL apoptosis assay; assay type: cell-based, human; settings: 10 μM, 4h, TUNEL 48h
[4] = test system: NQO1-containing LNCaP clones; experiment: colony forming ability assays; assay type: cell-based, human; settings: 4-h pulses
Experimental: FIG. 14. […] Colony forming ability assays (CFAs) were performed three times, each in triplicate.
as §1

athymic nude mice = experiment: maximum tolerated dose in athymic nude mice; assay type: in vivo, mouse
Experimental: MDA_MB-468 NQO1+ Tumor (468) cells were injected into the right and left flanks of 18-20 gm athymic nude mice and tumors of 20-50 mm^3 volume were allowed to grow in 20-30 days. When tumor volumes reached 20-30 mm^3 (at day 26), mice were then treated (by intraperitoneal injection) every other day with the indicated doses (in mg/kg) of β-lap (55-70 mg/kg were tested). The maximum tolerated dose of β-lap in athymic nude mice was determined to be […]). Ten (10) β-lap doses were given every other day, and data are shown for only one cycle of β-lap treatment. Multiple cycles of treatments are now being tested, as are various dose regimen and scheduling protocols.
β-lap bioavailability and antitumor activity. To show efficacy of β-lap in vivo, a systemic delivery system was developed for this water-insoluble drug. β-Lap complexes with β-hydroxypropyl-β-cyclodextrin (HP-β-CD) that dissolves the drug and makes it bioavailable. The toxicity of HP-β-CD.β-lap in 18-20 gm athymic nude mice was examined and the maximum tolerated dose (MTD) was ˜75 mg/kg. […] We tested the effects of β-lap administered i.p. in athymic nude mice bearing NQO1^+ MDA-MB-468 (468) human breast cancer xenografts.

[5] = test system: Lewis lung carcinoma (LLC); assay type: cell-based; settings: 4 μM, 4 h
Source text: (§2) PARP cleavage to a 60 kDa fragment and specific p53 proteolysis are diagnostic for β-lap-induced μ-calpain-mediated apoptosis.

L1C2 cells = assay type: cell-based; settings: 4 μM, 4 h
Source text: as §2

[6] = phase solubility studies of β-lap with cyclodextrins; assay type: physicochemical
Experimental: Solubility studies were performed by adding excess amount of β-lap to a series of PBS buffer that contain different concentrations of each CD molecule ranging from zero to its solubility limit (see Table 1 for the solubility limit of each CD molecule). A schematic diagram of the intermolecular interactions and their effect on solubility is provided as FIG. 1. The suspensions were stirred at 25° C. until dissolution equilibrium was reached. […] Phase solubility diagram for each CD was obtained by plotting the β-lap solubility at dissolution equilibrium as a function of the CD concentration.

LNCaP cells = experiment: survival / lethality of CaP cells; assay type: cell-based, human; settings: LNCaP (lack NQO1)
PC-3 cells = experiment: survival / lethality of CaP cells; assay type: cell-based, human; settings: PC-3, absence of IR
[7] = test system: normal fresh or proliferating human PBMC; settings: cited from earlier work
CC-10 tumor cell lines = experiment: lethality and apoptosis of NSCLC cells; assay type: cell-based, mouse
Source text: as §2

LNCaP = experiment: TUNEL apoptosis assay; assay type: cell-based, human; settings: for Apoptosis (%) After Drug Treatment: 10 μM, 4h

CC1(C)CCC2=C(O1)c1ccccc1C(=O)C2=O [β-lap, β-Lapachone]
solubility of β-lap in PBS buffer [1]: 2.6×10^−4 M and 0.05 mg/cc | Apoptosis (%) After Drug Treatment (DU-145; DU-145 + DC (50 μM dicoumarol)): 0.12% | Apoptosis (%) After Drug Treatment (DU-145; DU-145 + DVED): 76% | Apoptosis (%) After Drug Treatment (DU-145; DU-145): 71% | apoptosis [2]: < 5% | apoptosis [3]: 80-90% | lethality (DU-145 cells; DU-145, 4 μM β-lap): > 95% | survival (DU-145 cells; DU-145, 4 μM β-lap with 50 μM dicoumarol): > 95% | sensitivity to β-lap (DU-145 cells; DU-145, absence of IR): sensitive | LD50 (C57/blk6 mice; Cremophor as vehicle): > 150 mg/kg | LD50 (C57/blk6 mice; lipiodol, C57/blk6 mice): > 150 mg/kg | Apoptosis (%) After Drug Treatment (PC-3; PC-3 + DC (50 μM dicoumarol)): 0.04% | Apoptosis (%) After Drug Treatment (PC-3; PC-3 + DVED): 91% | Apoptosis (%) After Drug Treatment (PC-3; PC-3): 82% | sensitivity compared to NQO1-deficient LN-pcDNA3 vector alone cells [4]: significantly more sensitive | maximum tolerated dose (MTD) (athymic nude mice; 18-20 gm athymic nude mice): 80 mg/kg | greater bioavailability in vivo than in previous studies (athymic nude mice; HP-β-CD complex MTD vs lipiodol LD50): ~3 fold | sensitivity to β-lap [5]: extremely sensitive | sensitivity to β-lap (L1C2 cells): extremely sensitive | increase of β-lap solubility in HPβ-CD over that in β-CD vehicle [6]: 24 fold | maximal solubility of β-lap in HPβ-CD solution ([6]; HPβ-CD solution, PBS, 25° C.): 66.0 mM and 16.0 mg/ml | water solubility of β-lap ([6]; water): 0.16 mM and 0.04 mg/ml | maximal solubility of β-lap in β-CD solution ([6]; β-CD solution, PBS, 25° C.): 2.8 mM and 0.68 mg/ml | sensitivity to β-lap (LNCaP cells): resistant | sensitivity to β-lap (PC-3 cells): sensitive | cytotoxic effects [7]: No cytotoxic effects | lethality and apoptosis (CC-10 tumor cell lines): caused lethality and apoptosis | sensitivity to β-lap (CC-10 tumor cell lines; 4 μM, 4 h): extremely sensitive | Apoptosis (%) After Drug Treatment (LNCaP; LNCaP + DC (50 μM dicoumarol), TUNEL 48h): 28% | Apoptosis (%) After Drug Treatment (LNCaP; LNCaP + DVED, TUNEL 48h): 24% | Apoptosis (%) After Drug Treatment (LNCaP; LNCaP, TUNEL 48h post-treatment): 28% | less apoptosis than DU-145 or PC-3 cells (LNCaP; β-lap-treated LNCaP): 3 fold
